{
  "source": "paper PMC2752052",
  "about": "(Analytical biochemistry, 2009)",
  "target": "T1, Sirt1 (Homo sapiens, UniProt Q96EB6)",
  "T1 sequence (Q96EB6 2-747)": "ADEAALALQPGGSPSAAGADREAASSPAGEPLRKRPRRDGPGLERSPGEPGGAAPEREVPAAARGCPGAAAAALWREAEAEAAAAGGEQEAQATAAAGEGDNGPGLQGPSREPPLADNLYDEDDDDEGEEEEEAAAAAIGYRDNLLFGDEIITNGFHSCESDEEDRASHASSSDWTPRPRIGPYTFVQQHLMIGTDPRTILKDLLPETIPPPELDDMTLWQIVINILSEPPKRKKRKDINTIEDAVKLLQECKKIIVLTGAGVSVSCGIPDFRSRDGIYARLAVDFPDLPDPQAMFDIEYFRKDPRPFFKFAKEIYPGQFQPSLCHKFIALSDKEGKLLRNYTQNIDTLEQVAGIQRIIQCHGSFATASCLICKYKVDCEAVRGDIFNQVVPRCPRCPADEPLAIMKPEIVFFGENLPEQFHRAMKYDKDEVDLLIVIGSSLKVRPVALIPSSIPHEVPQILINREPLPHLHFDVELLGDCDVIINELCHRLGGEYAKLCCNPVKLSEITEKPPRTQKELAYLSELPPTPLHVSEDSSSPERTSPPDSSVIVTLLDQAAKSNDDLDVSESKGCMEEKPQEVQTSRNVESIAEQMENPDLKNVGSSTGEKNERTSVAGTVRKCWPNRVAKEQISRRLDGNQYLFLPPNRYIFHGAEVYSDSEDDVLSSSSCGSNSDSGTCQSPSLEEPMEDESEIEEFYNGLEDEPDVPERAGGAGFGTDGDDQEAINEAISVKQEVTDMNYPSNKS",
  "experiment": "nicotinamidase/glutamate dehydrogenase coupled assay",
  "assay_type": "biochemical",
  "data": [
    {"smiles": "Nc1ncnc2c1ncn2[C@@H]1O[C@H](COP(=O)(O)OP(=O)(O)OC[C@H]2OC(O)[C@H](O)[C@@H]2O)[C@@H](O)[C@H]1O", "note": "(stereo partly shown) [ADP-ribose]", "values": [
      {"measurement": "IC50", "value": "77 ± 4", "unit": "µM"}
    ]}
  ]
}
